Test results taken from publication PMC6240093, “Identification of Two Mannosyltransferases Contributing to Biosynthesis of the Fungal-type Galactomannan α-Core-Mannan Structure in Aspergillus fumigatus” (Scientific Reports, 2018).

Biological target: T1, CmsA (Aspergillus fumigatus, UniProt B0Y2F5)
T1 construct: gene AFUB_051270; catalytic domain residues 27-397 (N-terminal TM removed)
Test: HPLC (UV300) of product with p-nitrophenyl alpha-D-mannopyranoside as acceptor
Assay type: biochemical
Details: donor 1.5 mM; p-nitrophenyl alpha-D-mannopyranoside 1.5 mM; 1.5 mM MnCl2; pH 7.0; 37 °C

T1 sequence (B0Y2F5 entry or part of it): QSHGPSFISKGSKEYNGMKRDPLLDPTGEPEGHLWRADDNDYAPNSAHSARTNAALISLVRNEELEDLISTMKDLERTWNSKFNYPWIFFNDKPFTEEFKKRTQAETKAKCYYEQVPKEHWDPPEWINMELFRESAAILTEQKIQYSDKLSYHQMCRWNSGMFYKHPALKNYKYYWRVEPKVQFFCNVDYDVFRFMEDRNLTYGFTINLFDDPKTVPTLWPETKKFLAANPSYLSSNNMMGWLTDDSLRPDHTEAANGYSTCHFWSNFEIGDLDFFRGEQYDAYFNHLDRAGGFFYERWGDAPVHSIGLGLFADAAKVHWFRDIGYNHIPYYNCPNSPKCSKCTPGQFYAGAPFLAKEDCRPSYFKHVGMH

Nc1nc2c(ncn2[C@@H]2O[C@H](COP(=O)(O)OP(=O)(O)O[C@H]3O[C@H](CO)[C@@H](O)[C@H](O)[C@@H]3O)[C@@H](O)[C@H]2O)c(=O)[nH]1 [GDP-Man] was tested, and the “HPLC (UV300) of product with p-nitrophenyl alpha-D-mannopyranoside as acceptor” value was “CmsA has GDP-Man: α-mannoside α-1,2-mannosyltransferase activity in vitro”.
